Measured values taken from patent US5321043A, “Method of combatting transplant rejection” (The University of Melbourne, priority 1992, dated 1994).
“Also recorded” adds a separate entry of the source.

How the values were obtained:
[1] = test system: MLC response of responder lymphocytes to irradiated EBV-transformed lymphoblastoid cells; assay: Mixed lymphocyte culture (MLC) suppression by CyA and PG analogues, alone and combined (tritiated thymidine uptake); format: cell-based, human; details: for decrease in PG analogue concentration necessary for 50% MLC suppression when combined with CyA vs alone / interaction with CyA on MLC suppression: combination with CyA; for Suppression of MLC responses, mean % decrease of cpm vs drug-free cultures: mean of five donors
Method: Heparinised blood was obtained from five healthy donors without history of previous blood transfusion, pregnancy, or organ transplantation.
Prostaglandin (PG) analogues PGE1, PGE2, PGF2a, and PGI2 were supplied by the Upjohn Company (Kalamazoo, Mich.) in the form of 15-(s)-15-methyl PGE1, 16,16-dimethyl PGE2, 16,16-dimethyl PGF2α, and 9-deoxy-2,9a-methano-3-oxa-4,5,6-trinor-3,7-(1', 3'-interphenylene)-13,14'-dihydroprostaglandin FI (Compound A). Each was provided in methyl acetate at 10 mg/mL that was subsequently diluted, first with ethyl alcohol to a concentration of 1 mg/mL and thereafter with physiological saline to the concentration range required for the study, 10.0-0.001 μg/mL.
Responder lymphocytes were isolated from the healthy donor heparinised blood by density gradient separation and suspended in glutamine, antibiotic-supplemented RPMI medium containing 10% autologous responder lymphocyte donor serum at a concentration of 1 ×10^6 cells/mL. The stimulator population consisted of Epstein-Barr virus (EBV)-transformed lymphoblastoid cells that were irradiated (130 Gy) before suspension also at 1×10^6 cells/mL in glutamine, antibiotic-supplemented RPMI medium that contained 10% autologous responder lymphocyte donor serum.
Equal volumes (0.1 mL) of responder and stimulator cells were incubated in triplicate wells of microtitre trays with each of the following:
Following incubation at 37° C. (5% CO2) for 4 days, […] of tritiated thymidine was added to all cultures before further incubation for 6-8 hours, after which cells were automatically harvested (Skatron, Liebyen, Norway) on Titertek filter paper (Flow Laboratories, Irvine, Scotland) that was placed in vials containing liquid scintillation fluid for counting in a Beckman beta counter (Beckman, Brea, Calif.).

renal allograft = assay: Rabbit renal allograft survival; format: in vivo
Method: Left orthotopic renal transplantation was performed from New Zealand White rabbit donors into Anglo lop-ear recipients. See D. Francis et al., Aust. N. Z. J. Surgery 60, 45, 1990. Contralateral nephrectomy and graft biopsy were performed on the first post-operative day. Each recipient was subsequently dependent on its transplant for renal function. Serum creatinine (sCr) was measured every 48 hours and animals were culled once sCr had risen above 1.2 mMoles/1, taken as an arbitrary end-point representing graft failure. Graft biopsies were performed weekly and post-mortem to ensure that graft loss was secondary to rejection. Standard haematoxylin and eosin and Masson's trichrome stains were performed.
Compound A was provided as a powder which was dissolved in absolute ethanol to yield a 1 mg/ml solution. 50 μg/kg/day was administered subcutaneously for seven days commencing perioperatively. Ethanol (50 μl/kg/day) was administered in vehicle-only control animals.

[2] = test system: New Zealand White rabbits; assay: Acute cyclosporine (CyA) nephrotoxicity in rabbits (serum creatinine, urea, histology); format: in vivo, rabbit; details: Compound A 50 ug/kg/day s.c. with CyA 100 mg/kg/day i.v.
Method: 50 ug/kg/day was administered subcutaneously for seven days. Ethanol (50 ul/kg/day) was administered in vehicle-only control animals.
Serum creatinine (Cr) and urea were measured prior to commencement of treatment (day 0) and 24 hours following treatment (day 7). Day 7 renal biopsies were stained with haematoxylin and eosin and Masson's trichrome.

[3] = Blood CyA levels after seven days treatment in nephrotoxicity study (Abbott TDX fluorescence immunoassay); format: in vivo, rabbit; details: CyA administered parenterally
Method: Compound A was provided as a powder which was dissolved in absolute ethanol to yield a […] solution. 50 ug/kg/day was administered subcutaneously for seven days. Ethanol (50 ul/kg/day) was administered in vehicle-only control animals.

[4] = PG analogue 0.01 μg/mL + CyA 0.001 μg/mL
[5] = PG analogue 0.01 μg/mL + CyA 0.01 μg/mL
[6] = PG analogue 0.01 μg/mL + CyA 0.1 μg/mL
[7] = PG analogue 0.01 μg/mL + CyA 1.0 μg/mL
[8] = PG analogue 0.01 μg/mL + CyA 10.0 μg/mL
[9] = PG analogue 0.1 μg/mL + CyA 0.001 μg/mL
[10] = PG analogue 0.1 μg/mL + CyA 0.01 μg/mL
[11] = PG analogue 0.1 μg/mL + CyA 0.1 μg/mL
[12] = PG analogue 0.1 μg/mL + CyA 1.0 μg/mL
[13] = PG analogue 0.1 μg/mL + CyA 10.0 μg/mL
[14] = PG analogue 1.0 μg/mL + CyA 0.001 μg/mL
[15] = PG analogue 1.0 μg/mL + CyA 0.01 μg/mL
[16] = PG analogue 1.0 μg/mL + CyA 0.1 μg/mL
[17] = PG analogue 1.0 μg/mL + CyA 1.0 μg/mL
[18] = PG analogue 1.0 μg/mL + CyA 10.0 μg/mL
[19] = PG analogue 10.0 μg/mL + CyA 0.001 μg/mL
[20] = PG analogue 10.0 μg/mL + CyA 0.01 μg/mL
[21] = PG analogue 10.0 μg/mL + CyA 0.1 μg/mL
[22] = PG analogue 10.0 μg/mL + CyA 1.0 μg/mL
[23] = PG analogue 10.0 μg/mL + CyA 10.0 μg/mL

SMILES | Suppression of MLC responses by CyA in combination with PG analogue [1, 4] [%] | Suppression of MLC responses by CyA in combination with PG analogue [1, 5] [%] | Suppression of MLC responses by CyA in combination with PG analogue [1, 6] [%] | Suppression of MLC responses by CyA in combination with PG analogue [1, 7] [%] | Suppression of MLC responses by CyA in combination with PG analogue [1, 8] [%] | Suppression of MLC responses by CyA in combination with PG analogue [1, 9] [%] | Suppression of MLC responses by CyA in combination with PG analogue [1, 10] [%] | Suppression of MLC responses by CyA in combination with PG analogue [1, 11] [%] | Suppression of MLC responses by CyA in combination with PG analogue [1, 12] [%] | Suppression of MLC responses by CyA in combination with PG analogue [1, 13] [%] | Suppression of MLC responses by CyA in combination with PG analogue [1, 14] [%] | Suppression of MLC responses by CyA in combination with PG analogue [1, 15] [%] | Suppression of MLC responses by CyA in combination with PG analogue [1, 16] [%] | Suppression of MLC responses by CyA in combination with PG analogue [1, 17] [%] | Suppression of MLC responses by CyA in combination with PG analogue [1, 18] [%] | Suppression of MLC responses by CyA in combination with PG analogue [1, 19] [%] | Suppression of MLC responses by CyA in combination with PG analogue [1, 20] [%] | Suppression of MLC responses by CyA in combination with PG analogue [1, 21] [%] | Suppression of MLC responses by CyA in combination with PG analogue [1, 22] [%] | Suppression of MLC responses by CyA in combination with PG analogue [1, 23] [%] | further results
CCCCC[C@H](O)CC[C@@H]1[C@H]2Cc3cccc(OCC(=O)O)c3C[C@H]2C[C@H]1O [Compound A, 9-deoxy-2',9α-methano-3-oxa-4,5,6-trinor-3,7-(1',3'-interphenylene)-13, 14--dihydro-prostaglandinF1] | 27 | 58 | 75 | 86 | 87 | 68 | 76 | 86 | 85 | 85 | 81 | 85 | 85 | 85 | 88 | 86 | 88 | 85 | 86 | 86 | decrease in PG analogue concentration necessary for 50% MLC suppression when combined with CyA vs alone [1]: 10 fold; interaction with CyA on MLC suppression [1]: a synergy that parallels that observed between CyA and the PGE analogues; Suppression of MLC responses, mean % decrease of cpm vs drug-free cultures ([1]; single agent at 0.001 μg/mL): 10%; Suppression of MLC responses, mean % decrease of cpm vs drug-free cultures ([1]; single agent at 0.01 μg/mL): 22%; Suppression of MLC responses, mean % decrease of cpm vs drug-free cultures ([1]; single agent at 0.1 μg/mL): 51%; Suppression of MLC responses, mean % decrease of cpm vs drug-free cultures ([1]; single agent at 1.0 μg/mL): 61%; Suppression of MLC responses, mean % decrease of cpm vs drug-free cultures ([1]; single agent at 10.0 μg/mL): 77%; times more effective in suppressing the MLC response than PGE1 and PGE2 ([1]; single agents): 10 times; effect on renal allograft survival (renal allograft; Compound A 50 μg/kg/day s.c., CyA 20 mg/kg where combined): prolonged allograft survival over that of untreated animals; Median Graft Survival (renal allograft; Compound A 50 μg/kg/day subcutaneously for seven days, no CyA): 13.5 days; effect on renal function, as measured by serum Cr and urea [2]: significant protective effect on renal function; effect on renal function, as measured by serum Cr and urea ([2]; listed as PGI2 analogue): significant protective affect on renal function; effect on CyA bioavailability [3]: without effecting CyA bioavailability
CCCCC(C)(C)[C@H](O)/C=C/[C@H]1[C@H](O)CC(=O)[C@@H]1C/C=C\CCCC(=O)O [PGE2, 16,16-dimethyl PGE2] | 23 | 49 | 55 | 63 | 68 | 26 | 52 | 58 | 66 | 70 | 58 | 56 | 67 | 80 | 85 | 60 | 71 | 72 | 88 | 86 | decrease in PG analogue concentration necessary for 50% MLC suppression when combined with CyA vs alone [1]: 100 fold; Suppression of MLC responses, mean % decrease of cpm vs drug-free cultures ([1]; single agent at 0.001 μg/mL): 6%; Suppression of MLC responses, mean % decrease of cpm vs drug-free cultures ([1]; single agent at 0.01 μg/mL): 18%; Suppression of MLC responses, mean % decrease of cpm vs drug-free cultures ([1]; single agent at 0.1 μg/mL): 32%; Suppression of MLC responses, mean % decrease of cpm vs drug-free cultures ([1]; single agent at 1.0 μg/mL): 51%; Suppression of MLC responses, mean % decrease of cpm vs drug-free cultures ([1]; single agent at 10.0 μg/mL): 58%; times more effective in suppressing the MLC response than the PGF2a analogue ([1]; single agents): 10 times
CCCCC(C)(C)[C@H](O)/C=C/[C@@H]1[C@@H](C/C=C\CCCC(=O)O)[C@@H](O)C[C@H]1O [PGF2α, 16,16-dimethyl PGF2α] | 14 | 25 | 55 | 70 | 86 | 14 | 24 | 55 | 72 | 86 | 31 | 30 | 58 | 76 | 85 | 58 | 65 | 69 | 79 | 86 | interaction with CyA on MLC suppression ([1]; listed as PGF2a): no influence further than that exerted when each was added alone; also recorded: no indication of synergistic interaction with CyA; minimum concentration which alone induced 50% MLC inhibition ([1]; single agent): 10.0 µg/mL; Suppression of MLC responses, mean % decrease of cpm vs drug-free cultures ([1]; single agent at 0.001 μg/mL): 0%; Suppression of MLC responses, mean % decrease of cpm vs drug-free cultures ([1]; single agent at 0.01 μg/mL): 4%; Suppression of MLC responses, mean % decrease of cpm vs drug-free cultures ([1]; single agent at 0.1 μg/mL): 16%; Suppression of MLC responses, mean % decrease of cpm vs drug-free cultures ([1]; single agent at 1.0 μg/mL): 29%; Suppression of MLC responses, mean % decrease of cpm vs drug-free cultures ([1]; single agent at 10.0 μg/mL): 50%
